Experiments:
primary rat hepatocytes [1] = experiment: Safe-Hit genomic test of predictive toxicology (Toxicity Index) on primary rat hepatocytes; format: cell-based; conditions: 16 h
Excerpt: After treatment of the primary rat hepatocytes in culture, the RNA was extracted in order to generate labelled complementary-DNA probes which were then hybridised on a membrane containing 682 alternatively-spliced fragments specific to cell stress. A Toxicity Index was obtained for each of the products by comparing the hybridisation profile of the treated cells with that of the untreated cells.
Safe-Hit allows molecules within a chemical series to be ranked according to a Toxic Index, determined after the following basic steps (systematically performed in duplicate for each product): • treatment of the cells lines with the various products at three different concentrations, deduced from a preliminary cytotoxicology test (MTT-assay): a reference concentration corresponding to 80% cell viability, a concentration 10-fold higher—when possible—and a concentration 10-fold lower, • preparation of total RNA and of the corresponding radio-labelled cDNA probes, • hybridisation of the cDNA probes: the Safe-Hit macroarray contains 682 independent clones, corresponding to alterations in gene splicing induced by overexpression of WTp53 (p53 is the most ubiquitous “mediator” of cell stress, chosen for the development of this methodology), • acquisition and determination of the Toxicity Index. 4.1.2. Cells
The cells used in the study (preliminary MTT-assay of cytotoxicity and the main test) are cryopreserved hepatocytes from Sprague-Dawley rats in primary culture (batches Hep184005 and Hep184006-Biopredic), cultured under standard conditions.
The cells are seeded and cultured for 16 hours with each product, at the three concentrations chosen on the basis of the preliminary MTT-assay; two controls (untreated cells in solvent alone) are added to the series.
The results of the two Safe-Hit analyses are then compared and combined to assess the potential toxicity of the various compounds tested. Two parameters that can be modified by the user are involved in the calculation of the Toxicity Index: • Background Threshold (BT) smoothes out weak signals, close to background noise and not attributable to significant gene expression. […] The value of this parameter is usually 2 or less than 2 in order to obtain relevant results. […]
Toxicity Indices (TI) were determined as described above. […] Two separate analyses were performed using two levels of differentiation (Induction Factor-IF) in relation to the untreated controls: • a factor of at least 1.7 in relation to the untreated controls. This factor of 1.7 times represents the weakest value that allows an index not to be obtained in relation to the two untreated controls. • a factor of at least 2 in relation to the untreated controls. This factor of 2 times allows the most robust signals to be taken into account. 4.3.1. Induction Factor of 1.7 in Relation to Untreated Control (Table 7)

primary rat hepatocytes [2] = experiment: Cytotoxicity test (MTT-assay) on primary rat hepatocytes; format: cell-based; conditions: 16 hours
Procedure: The […] and […] compounds, enantiomers of the racemic molecule […], as well as clomipramine, a reference product, (coded […] in the study) were assessed in the present study. The two enantiomers, […] and […], were first assessed in a preliminary cytotoxicity text (MTT-assay) on primary rat hepatocytes, in order to select the three concentrations to be used in the final test. The cells used in the study (preliminary MTT-assay of cytotoxicity and the main test) are cryopreserved hepatocytes from Sprague-Dawley rats in primary culture (batches Hep184005 and Hep184006-Biopredic), cultured under standard conditions. […] Formazan is solubilised in an organic solvent and the solution obtained can be measured by spectrophotometry. The absorbance measured is proportional to the number of surviving cells. The cells are put into contact with the product to be tested at […] (0-1-10-25-50 and 100 μM) for 16 hours. After this period of exposure, an MTT solution (0.5 mg/ml in the incubation medium of the primary hepatocytes) is added for 3 hours. After solubilisation of the formazan crystals, the multi-well plates are read with a spectrophotometer at 500 nm in order to determine the percentage of cell viability. These assays were performed in triplicate on primary rat hepatocytes exposed for 16 hours.

## CN(C)CCCN1c2ccccc2CCc2ccc(Cl)cc21 [C218, clomipramine]
Primary rat hepatocytes [1]; 1 μM
  Clone A09 (H. sapiens mitochondrion, 12S), regulation factor vs untreated control: 2.90
  Clone AA11 (H. sapiens Repeat sequence AluJb fragment inserted into a cDNA coding for an unknown protein), regulation factor vs untreated control: 0.38
  Clone AC13 (H. sapiens 7S RNA L gene), regulation factor vs untreated control: 0.28
  Clone C01 (H. sapiens mitochondrion, 16S), regulation factor vs untreated control: 1.93
  Clone T08 (H. sapiens mRNA for KIAA1185 protein), regulation factor vs untreated control: 0.35
  Clone U04 (H. sapiens translation initiation factor elF-2alpha mRNA), regulation factor vs untreated control: 0.48
  Clone X02 (unk), regulation factor vs untreated control: 0.36
  Clone X06 (H. sapiens Genomic sequence from 9q34), regulation factor vs untreated control: 0.23
  Clone Z13 (unk), regulation factor vs untreated control: 0.34
Primary rat hepatocytes [1]; 10 μM
  Clone A09 (H. sapiens mitochondrion, 12S), regulation factor vs untreated control: 2.23
  Clone AA11 (H. sapiens Repeat sequence AluJb fragment inserted into a cDNA coding for an unknown protein), regulation factor vs untreated control: 0.27
  Clone AC13 (H. sapiens 7S RNA L gene), regulation factor vs untreated control: 0.16
  Clone B20 (H. sapiens chromosome 19, BAC CIT-B-191n6), regulation factor vs untreated control: 0.14
  Clone B22 (H. sapiens Genomic sequence from 17), regulation factor vs untreated control: 0.17
  Clone C01 (H. sapiens mitochondrion, 16S), regulation factor vs untreated control: 1.82
  Clone E05 (H. sapiens DNA sequence from clone 740A11 on chromosome Xq22.2-23, part of COL4A5 gene), regulation factor vs untreated control: 0.22
  Clone E21 (H. sapiens ribosomal protein S14 gene), regulation factor vs untreated control: 0.56
  Clone M12 (H. sapiens mRNA; cDNA DKFZp564C1563), regulation factor vs untreated control: 0.16
  Clone T08 (H. sapiens mRNA for KIAA1185 protein), regulation factor vs untreated control: 0.14
  Clone U04 (H. sapiens translation initiation factor elF-2alpha mRNA), regulation factor vs untreated control: 0.22
  Clone X02 (unk), regulation factor vs untreated control: 0.24
  Clone X05 (H. sapiens microsomal epoxide hydrolase (EPHX) gene), regulation factor vs untreated control: 0.15
  Clone X06 (H. sapiens Genomic sequence from 9q34), regulation factor vs untreated control: 0.15
  Clone Z13 (unk), regulation factor vs untreated control: 0.29
Primary rat hepatocytes [1]; 100 μM
  Clone A09 (H. sapiens mitochondrion, 12S), regulation factor vs untreated control: 2.14
  Clone AA11 (H. sapiens Repeat sequence AluJb fragment inserted into a cDNA coding for an unknown protein), regulation factor vs untreated control: 0.31
  Clone AA13 (H. sapiens 18S rRNA gene), regulation factor vs untreated control: 1.79
  Clone AC13 (H. sapiens 7S RNA L gene), regulation factor vs untreated control: 0.28
  Clone B20 (H. sapiens chromosome 19, BAC CIT-B-191n6), regulation factor vs untreated control: 0.27
  Clone B22 (H. sapiens Genomic sequence from 17), regulation factor vs untreated control: 0.32
  Clone C01 (H. sapiens mitochondrion, 16S), regulation factor vs untreated control: 1.91
  Clone E01 (H. sapiens mRNA for lipocortin II), regulation factor vs untreated control: 1.73
  Clone E05 (H. sapiens DNA sequence from clone 740A11 on chromosome Xq22.2-23, part of COL4A5 gene), regulation factor vs untreated control: 0.35
  Clone E19 (H. sapiens mitochondrion, cytochrome c oxidase subunit 1), regulation factor vs untreated control: 1.72
  Clone E21 (H. sapiens ribosomal protein S14 gene), regulation factor vs untreated control: 0.58
  Clone F24 (H. sapiens LIM homeobox protein cofactor (CLIM-1) mRNA), regulation factor vs untreated control: 0.52
  Clone G01 (H. sapiens estrogen receptor-related protein (variant ER from breast cancer) mRNA), regulation factor vs untreated control: 2.04
  Clone G05 (H. sapiens mitochondrion, cytochrome c oxidase subunit 1), regulation factor vs untreated control: 2.02
  Clone G09 (H. sapiens mitochondrion, cytochrome b), regulation factor vs untreated control: 1.76
  Clone I18 (H. sapiens 18S rRNA gene), regulation factor vs untreated control: 1.88
  Clone L23 (H. sapiens cDNA NIH_MGC_16 clone IMAGE: 3350241 5′, mRNA sequence), regulation factor vs untreated control: 1.75
  Clone M07 (H. sapiens mitochondrion, cytochrome c oxidase subunit 1), regulation factor vs untreated control: 1.75
  Clone M12 (H. sapiens mRNA; cDNA DKFZp564C1563), regulation factor vs untreated control: 0.39
  Clone Q11 (unk), regulation factor vs untreated control: 1.92
  Clone S01 (Mus muculus TCR beta locus), regulation factor vs untreated control: 2.98
  Clone T08 (H. sapiens mRNA for KIAA1185 protein), regulation factor vs untreated control: 0.22
  Clone U04 (H. sapiens translation initiation factor elF-2alpha mRNA), regulation factor vs untreated control: 0.37
  Clone X02 (unk), regulation factor vs untreated control: 0.31
  Clone X05 (H. sapiens microsomal epoxide hydrolase (EPHX) gene), regulation factor vs untreated control: 0.24
  Clone X06 (H. sapiens Genomic sequence from 9q34), regulation factor vs untreated control: 0.23
  Clone Z13 (unk), regulation factor vs untreated control: 0.27
  Clone Z20 (Homo sapiens cDNA wc44h09, similar to RAS_RELATED PROTEIN RAB-24, mRNA sequence), regulation factor vs untreated control: 0.57
Primary rat hepatocytes [1]; Induction Factor 1.7, 1 μM
  Number of down-regulated clones (Down): 7
  Number of up-regulated clones (Up): 2
  Toxicity Index (TI, number of signatures): 9
Primary rat hepatocytes [1]; Induction Factor 1.7, 10 μM
  Number of down-regulated clones (Down): 13
  Number of up-regulated clones (Up): 2
  Toxicity Index (TI, number of signatures): 15
Primary rat hepatocytes [1]; Induction Factor 1.7, 50 μM
  Toxicity Index (TI, number of signatures): 28
Primary rat hepatocytes [1]; Induction Factor 1.7, 100 μM
  Number of down-regulated clones (Down): 15
  Number of up-regulated clones (Up): 13
  Toxicity Index (TI, number of signatures): 28
Primary rat hepatocytes [1]; Induction Factor 2, 1 μM
  Number of down-regulated clones (Down): 7
  Number of up-regulated clones (Up): 1
  Toxicity Index (TI, number of signatures): 8
Primary rat hepatocytes [1]; Induction Factor 2, 10 μM
  Number of down-regulated clones (Down): 12
  Number of up-regulated clones (Up): 1
  Toxicity Index (TI, number of signatures): 13
Primary rat hepatocytes [1]; Induction Factor 2, 50 μM
  Toxicity Index (TI, number of signatures): 16
Primary rat hepatocytes [1]; Induction Factor 2, 100 μM
  Number of down-regulated clones (Down): 12
  Number of up-regulated clones (Up): 4
  Toxicity Index (TI, number of signatures): 16
Primary rat hepatocytes [2]; 25 μM
  Toxicity in MTT-assay: no toxicity was observed
Primary rat hepatocytes [2]; 50 μM
  Cell viability in MTT-assay: greater than 80%
Primary rat hepatocytes [2]; 100 μM
  Cytotoxicity / cell viability in MTT-assay: no cell viability was observed

Source: USRE43879E1, “Use of the dextrogyral enantiomer of milnacipran for the preparation of a drug” (priority 2003, dated 2012)
